Measurements from patent publication US20250313553A1, “ANNULATED 2-AMINO-3-CYANO THIOPHENES AND DERIVATIVES FOR THE TREATMENT OF CANCER” (Boehringer Ingelheim Int'l GmbH Corp., priority 2021, published 2025).
Values after ≈ are worked out from the molar mass of the structure shown. Where two headings read alike, the source gives them in different places.

Columns and labels:
KRAS G12D Ba/F3 cells = KRAS G12D Ba/F3 cells (Homo sapiens, UniProt P01116, G12D, cells depend on it); assay: Ba/F3 proliferation assay, KRAS G12D; assay type: cell-based; settings: 72 h, AlamarBlue, read-out: KRAS G12D Ba/F3 IC50
Protocol: (§1) To generate KRASG12-dependent Ba/F3 models, Ba/F3 cells are transduced with retroviruses containing vectors that harbor KRASG12 isoforms. Platinum-E cells (Cell Biolabs) are used for retrovirus packaging. Retrovirus is added to Ba/F3 cells. To ensure infection, 4 μg/mL polybrene is added and cells are spinfected. […] Cells with an infection efficiency of 10% to 20% are further cultivated and puromycin selection with 1 μg/mL is initiated. As a control, parental Ba/F3 cells are used to show selection status. Selection is considered successful when parental Ba/F3 cells cultures died. To evaluate the transforming potential of KRASG12 mutations, the growth medium is no longer supplemented with IL-3. Ba/F3 cells harboring the empty vector are used as a control. Approximately ten days before conducting the experiments, puromycin is left out.
(§2) All treatments are performed in technical duplicates. […] AlamarBlue™ (ThermoFisher), a viability stain, is added and fluorescence measured in the PerkinElmer Envision HTS Multilabel Reader. The raw data are imported into and analyzed with the Boehringer Ingelheim proprietary software MegaLab (curve fitting based on the program PRISM, GraphPad Inc.).

KRAS G12C Ba/F3 cells = KRAS G12C Ba/F3 cells (Homo sapiens, UniProt P01116, G12C, cells depend on it); assay: Ba/F3 proliferation assay, KRAS G12C; assay type: cell-based; settings: 72 h, AlamarBlue, read-out: KRAS G12C Ba/F3 IC50
Protocol: as §1, §2

[1] = test system: ERK phosphorylation in NCI-H358 (KRAS G12C); assay: ERK phosphorylation assay (assay 1, NCI-H358); assay type: cell-based; settings: Homo sapiens; NCI-H358, assay 1, 1 h incubation; read-out: IC50 H358 pERK
Protocol: Low IC50 values in this assay setting are indicative of high potency of the compounds according to the invention. […]
The cells are incubated for 1 h at room temperature and then incubated overnight in an incubator at 37° C. and 5% CO2 in a humidified atmosphere. 60 nL compound solution (10 mM DMSO stock solution) is then added using a Labcyte Echo 550 device. […] After 20 min of incubation at room temperature with shaking, 6 μL of each lysate sample is transferred to a 384-well Proxiplate and analyzed for pERK (Thr202/Tyr204) with the AlphaLISA SureFire Ultra pERK1/2 (Thr202/Tyr204) Assay Kit. 3 μL Acceptor Mix and 3 μL Donor Mix are added under subdued light and incubated for 2 h at room temperature in the dark, before the signal is measured on a PerkinElmer Envision HTS Multilabel Reader. The raw data are imported into and analyzed with the Boehringer Ingelheim proprietary software MegaLab (curve fitting based on the program PRISM, GraphPad Inc.).

KRAS (G12D) and SOS1 = target: T1, KRAS (G12D) and SOS1 (Homo sapiens, UniProt P01116, G12D); assay: KRAS::SOS1 AlphaScreen binding assay, KRAS G12D
T1 construct: KRAS (G12D) 1-169, N-terminal 6His-tag; 6His (N); purchased Xtal BioStructures, Inc. (KRAS G12D); Viva Biotech Ltd (SOS1)
Protocol: (§3) Low IC50 values in this assay setting are indicative of strong inhibition of protein-protein interaction between SOS1 and KRAS:
(§4) These assays measure the inhibitory effect of compounds on KRAS mutant protein-protein interactions using the Alpha Screen technology by Perkin Elmer.
(§5) For the chosen highest assay concentration of 100 μM, 150 nL of compound solution are transferred from a 10 mM DMSO compound stock solution. A series of eleven fivefold dilutions per compound are transferred to the assay plate, compound dilutions are tested in duplicates. DMSO are added as backfill to a total volume of 150 nL.
(§6) The assays run on a fully automated robotic system in a darkened room below 100 Lux. To 150 nl of compound dilution 10 μl of a mix including KRAS mutant protein, SOS1 (final assay concentrations see above) and GDP nucleotide (Sigma G7127; final assay concentration 10 μM) in assay buffer (1×PBS, 0.1% BSA, 0.05% Tween 20) are added into columns 1-24. After 30 minutes incubation time 5 μl of Alpha Screen bead mix in assay buffer are added into columns 1-23.
(§7) Plates are kept at room temperature in a darkened incubator. After an additional 60 minutes incubation time the signal is measured in a PerkinElmer Envision HTS Multilabel Reader using the AlphaScreen specs from PerkinElmer.
(§8) IC50 values are calculated and analyzed with Boehringer Ingelheim's MEGALAB IC50 application using a 4 parametric logistic model.

CYP3A4 = target: T2, CYP3A4 (Homo sapiens, UniProt P08684); assay: Mechanism based inhibition of CYP3A4 assay (MBI 3A4); assay type: in vitro ADME; settings: 25 uM, hydroxy-midazolam formation after 30 min preincubation relative to 0 min
T2 construct: assayed in human liver microsomes (0.02 mg/mL) with midazolam (15 μM) as a substrate; from tissue; host or cells: human liver microsomes
Protocol: The time dependent inhibition towards CYP3A4 is assayed in human liver microsomes (0.02 mg/mL) with midazolam (15 μM) as a substrate. The test compounds and water control (wells w/o test compound) are preincubated in presence of NADPH (1 mM) with human liver microsomes (0.2 mg/mL) at a concentration of 25 uM for 0 min and 30 min. After preincubation, the incubate is diluted 1:10 and the substrate midazolam is added for the main incubation (15 min). The main incubation is quenched with acetonitrile and the formation of hydroxy-midazolam is quantified via LC/MS-MS. The formation of hydroxy-midazolam from the 30 min preincubation relative to the formation from the 0 min preincubation is used as a readout. Values of less than 100% mean that the substrate midazolam is metabolized to a lower extent upon 30 min preincubation compared to 0 min preincubation. In general low effects upon 30 min preincubation are desired (corresponding to values close to 100%/not different to the values determined with water control).

KRAS (G12C) and SOS1 = target: T3, KRAS (G12C) and SOS1 (Homo sapiens, UniProt P01116, C118S/C51S/C80L/G12C); assay: KRAS::SOS1 AlphaScreen binding assay, KRAS G12C
T3 construct: KRAS (G12C) 1-169, N-terminal 6His-tag for purification; 6His (N, cleaved yes)
Protocol: as §3, §4, §5, §6, §7, §8

KRAS G12V Ba/F3 cells = KRAS G12V Ba/F3 cells (Homo sapiens, UniProt P01116, G12V, cells depend on it); assay: Ba/F3 proliferation assay, KRAS G12V; assay type: cell-based; settings: 72 h, AlamarBlue, read-out: KRAS G12V Ba/F3 IC50
Protocol: as §1, §2

[2] = Solubility measurement (DMSO solution precipitation method); assay type: physicochemical; settings: aqueous buffer, kinetic from dmso stock
Protocol: The DMSO solution is diluted with an aqueous medium (McIlvaine buffer with pH=4.5 or 6.8) to a final concentration of 250 μM. After 24 h of shaking at ambient temperature a potentially formed precipitate is removed by filtration. The concentration of the test compound in the filtrate is determined by LC-UV methods by calibrating the signal to the signal of a reference solution with complete dissolution of the test compound in acetonitrile/water (1:1) with known concentration.

[3] = McIlvaine buffer pH 4.5, 24 h, read-out: solubility pH 4.5
[4] = McIlvaine buffer pH 6.8, 24 h, read-out: solubility pH 6.8

Sequence of KRAS G12D Ba/F3 cells (P01116 whole entry G12D, canonical isoform): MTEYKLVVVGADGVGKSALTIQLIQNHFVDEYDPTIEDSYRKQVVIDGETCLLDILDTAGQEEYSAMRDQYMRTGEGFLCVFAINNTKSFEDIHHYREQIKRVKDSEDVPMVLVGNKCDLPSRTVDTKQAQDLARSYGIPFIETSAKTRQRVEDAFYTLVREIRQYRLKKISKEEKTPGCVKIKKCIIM
Sequence of KRAS G12C Ba/F3 cells (P01116 whole entry G12C): as the sequence (P01116 whole entry G12D, canonical isoform) above, with D12C counted along it
T3 sequence (P01116 1-169 isoform P01116-2 G12C/C51S/C80L/C118S): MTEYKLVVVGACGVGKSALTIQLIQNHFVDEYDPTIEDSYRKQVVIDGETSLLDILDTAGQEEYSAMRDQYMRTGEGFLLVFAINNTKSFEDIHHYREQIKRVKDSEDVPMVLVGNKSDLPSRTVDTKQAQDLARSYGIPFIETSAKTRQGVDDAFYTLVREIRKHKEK
T2 sequence (P08684 whole entry): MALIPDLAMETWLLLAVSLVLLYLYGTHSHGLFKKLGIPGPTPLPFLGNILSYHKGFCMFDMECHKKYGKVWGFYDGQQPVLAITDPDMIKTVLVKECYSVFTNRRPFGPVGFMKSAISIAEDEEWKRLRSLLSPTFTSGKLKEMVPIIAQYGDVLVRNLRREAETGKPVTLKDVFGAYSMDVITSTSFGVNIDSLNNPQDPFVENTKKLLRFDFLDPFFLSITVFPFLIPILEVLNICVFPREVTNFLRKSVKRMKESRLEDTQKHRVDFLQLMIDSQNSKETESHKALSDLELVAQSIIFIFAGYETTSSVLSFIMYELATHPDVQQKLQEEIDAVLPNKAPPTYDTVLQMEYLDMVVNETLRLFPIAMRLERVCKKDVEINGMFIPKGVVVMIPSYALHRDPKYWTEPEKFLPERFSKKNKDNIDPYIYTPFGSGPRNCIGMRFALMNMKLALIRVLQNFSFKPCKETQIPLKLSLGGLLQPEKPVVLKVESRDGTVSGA
Sequence of KRAS G12V Ba/F3 cells (P01116 whole entry G12V): as the sequence (P01116 whole entry G12D, canonical isoform) above, with D12V counted along it
T1 sequence (P01116 1-169 isoform P01116-2 G12D): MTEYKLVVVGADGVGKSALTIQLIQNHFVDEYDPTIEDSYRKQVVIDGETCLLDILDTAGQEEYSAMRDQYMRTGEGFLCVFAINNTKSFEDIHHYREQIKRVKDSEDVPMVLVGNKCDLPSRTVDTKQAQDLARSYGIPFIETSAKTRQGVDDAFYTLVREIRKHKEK

Compound | GI50 (KRAS G12D Ba/F3 cells) [nM] | GI50 (KRAS G12C Ba/F3 cells) [nM] | IC50 [1] [nM] | IC50 (KRAS (G12D) and SOS1) [nM] | MBI 3A4 (CYP3A4) [%] | IC50 (KRAS (G12C) and SOS1) [nM] | GI50 (KRAS G12V Ba/F3 cells) [nM] | solubility at 24 h [2, 3] [µg/mL] | solubility at 24 h [2, 4] [µg/mL]
C[C@H]1CN(C)CCN1c1cccc(-c2noc([C@@]3(C)CCCc4sc(N)c(C#N)c43)n2)n1 [Example V-1] | 961 | 1270 | 252 | 26 | 65 | 31 | 1440 | > 110 | 76 (≈ 169 µM)
COCCCN1CCCN(c2nccc(-c3noc([C@@]4(C)CCCc5sc(N)c(C#N)c54)n3)n2)[C@@H](C)C1 [Example V-2] | 256 | 371 | 23 | 3 | – | 6 | 917 | > 130 | 100 (≈ 191 µM)
C[C@H]1CNCCN1c1nccc(-c2noc([C@@]3(C)CCCc4sc(N)c(C#N)c43)n2)n1 [Example V-4] | 823 | 831 | 130 | 15 | 75 | 23 | 1080 | > 97 | > 91
C[C@H]1CN(C)CCCN1c1nccc(-c2noc([C@@]3(C)CCCc4sc(N)c(C#N)c43)n2)n1 [Example V-5] | 293 | 493 | 38 | 7 | 55 | 8 | 640 | > 100 | 92 (≈ 198 µM)
C[C@H]1CNCCCN1c1nccc(-c2noc([C@@]3(C)CCCc4sc(N)c(C#N)c43)n2)n1 [Example V-6] | 801 | 811 | 75 | 12 | – | 15 | 1070 | 88 (≈ 195 µM) | 85 (≈ 189 µM)
C[C@H]1CN(C)CCN1c1nccc(-c2noc([C@@]3(C)CCCc4sc(N)c(C#N)c43)n2)n1 [Example V-7] | 1090 | 1240 | 137 | 16 | 57 | 22 | 1680 | – | –
C[C@H](Oc1cccc(-c2noc([C@@]3(C)CCCc4sc(N)c(C#N)c43)n2)n1)[C@@H]1CCCN1C [Example V-8] | 390 | 481 | 55 | 7 | – | 9 | 443 | > 96 | > 95
CC(C)N1CCCN(c2nccc(-c3noc([C@@]4(C)CCCc5sc(N)c(C#N)c54)n3)n2)[C@@H](C)C1 [Example V-9] | 51 | 64 | 12 | 5 | 49 | 5 | 76 | > 110 | > 110
C[C@H](Oc1nccc(-c2noc([C@@]3(C)CCCc4sc(N)c(C#N)c43)n2)n1)[C@@H]1CCCN1C [Example V-10] | 214 | 291 | 12 | 5 | 65 | 7 | 361 | > 110 | > 110
C[C@H](Oc1ccnc(-c2noc([C@@]3(C)CCCc4sc(N)c(C#N)c43)n2)n1)[C@@H]1CCCN1C [Example V-11] | – | – | 7 | – | – | – | – | > 116 | > 116
C[C@H]1CN(C)CCN1c1nccc(-c2cc([C@@]3(C)CCCc4sc(N)c(C#N)c43)on2)n1 [Example V-27] | 525 | 1430 | – | 8 | 71 | 24 | 1690 | > 93 | 18 (≈ 40 µM)
